# Test results: ChEMBL document CHEMBL5465560, “Selectivity Literature for EUbOPEN Chemogenomic Library” (2024)
# Experiments:
# [1] = biological target: Tyrosine-protein kinase Fyn (Homo sapiens) (UniProt P06241); test: Selectivity interaction (Kinase panel (KiNativ target engagement assay in Jurkat cells)) EUB0001635a FYN; type: cell-based; details: Selectivity number of off-targets 0.0, Selectivity number of targets 233.0, Source Knowledge https://www.sciencedirect.com/science/article/pii/S2451945619300674?via%3Dihub, at 1 µM
# [2] = biological target: Bromodomain adjacent to zinc finger domain protein 1A (Homo sapiens) (UniProt Q9NRL2); test: Selectivity interaction (Human bromodomain panel (DSF assay)) EUB0000233b BAZ1A
# [3] = biological target: T1, SNF-related serine/threonine-protein kinase (Homo sapiens) (UniProt Q9NRH2); test: Selectivity interaction (KinomeScan (DiscoverX)) EUB0000229b SNRK; details: at 10 µM
# T1 sequence (whole entry): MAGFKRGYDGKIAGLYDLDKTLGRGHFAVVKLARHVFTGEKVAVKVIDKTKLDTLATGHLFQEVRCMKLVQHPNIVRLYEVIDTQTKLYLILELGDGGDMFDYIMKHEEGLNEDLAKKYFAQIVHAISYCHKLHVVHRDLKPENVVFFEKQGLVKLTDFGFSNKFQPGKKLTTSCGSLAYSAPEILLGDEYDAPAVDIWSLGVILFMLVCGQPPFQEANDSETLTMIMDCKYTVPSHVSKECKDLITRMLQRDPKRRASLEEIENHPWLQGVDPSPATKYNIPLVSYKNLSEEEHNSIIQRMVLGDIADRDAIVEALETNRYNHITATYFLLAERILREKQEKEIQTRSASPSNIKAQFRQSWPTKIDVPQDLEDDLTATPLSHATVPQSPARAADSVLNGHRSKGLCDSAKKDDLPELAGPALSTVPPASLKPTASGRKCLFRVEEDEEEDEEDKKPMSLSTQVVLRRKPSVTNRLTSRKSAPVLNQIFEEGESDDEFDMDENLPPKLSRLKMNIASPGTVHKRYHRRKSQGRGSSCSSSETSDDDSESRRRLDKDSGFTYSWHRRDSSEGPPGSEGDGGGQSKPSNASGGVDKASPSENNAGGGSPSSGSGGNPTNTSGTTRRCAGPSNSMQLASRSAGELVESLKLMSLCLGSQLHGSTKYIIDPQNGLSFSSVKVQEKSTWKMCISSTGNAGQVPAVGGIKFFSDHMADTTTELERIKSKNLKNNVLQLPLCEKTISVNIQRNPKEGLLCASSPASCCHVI
# [4] = biological target: T2, Megakaryocyte-associated tyrosine-protein kinase (Homo sapiens) (UniProt P42679); details: at 10 µM
# T2 sequence (whole entry): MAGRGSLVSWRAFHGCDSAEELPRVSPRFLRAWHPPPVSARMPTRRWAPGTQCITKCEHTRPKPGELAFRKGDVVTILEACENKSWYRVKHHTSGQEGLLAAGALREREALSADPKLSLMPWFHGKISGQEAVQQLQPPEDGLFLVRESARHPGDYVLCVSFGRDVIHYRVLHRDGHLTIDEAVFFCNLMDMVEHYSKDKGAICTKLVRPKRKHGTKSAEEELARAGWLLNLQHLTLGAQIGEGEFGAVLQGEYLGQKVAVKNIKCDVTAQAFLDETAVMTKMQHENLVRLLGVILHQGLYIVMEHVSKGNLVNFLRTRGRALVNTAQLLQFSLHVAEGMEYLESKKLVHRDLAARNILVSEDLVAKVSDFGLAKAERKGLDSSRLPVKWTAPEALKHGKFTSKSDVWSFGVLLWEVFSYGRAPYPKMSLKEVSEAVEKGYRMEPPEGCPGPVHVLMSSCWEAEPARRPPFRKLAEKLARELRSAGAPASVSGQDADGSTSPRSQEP
# Adenosine receptor A3 = Adenosine receptor A3 (Homo sapiens, UniProt P0DMS8); test: Selectivity interaction (Adenosine 3 receptor binding assay, human recombinant ) EUB0000877a ADORA3
# [5] = biological target: T3, Mitogen-activated protein kinase 12 (Homo sapiens) (UniProt P53778); test: Selectivity interaction (Kinase panel (Invitrogen)) EUB0000639a MAPK12; details: at 200 nM
# T3 sequence (whole entry): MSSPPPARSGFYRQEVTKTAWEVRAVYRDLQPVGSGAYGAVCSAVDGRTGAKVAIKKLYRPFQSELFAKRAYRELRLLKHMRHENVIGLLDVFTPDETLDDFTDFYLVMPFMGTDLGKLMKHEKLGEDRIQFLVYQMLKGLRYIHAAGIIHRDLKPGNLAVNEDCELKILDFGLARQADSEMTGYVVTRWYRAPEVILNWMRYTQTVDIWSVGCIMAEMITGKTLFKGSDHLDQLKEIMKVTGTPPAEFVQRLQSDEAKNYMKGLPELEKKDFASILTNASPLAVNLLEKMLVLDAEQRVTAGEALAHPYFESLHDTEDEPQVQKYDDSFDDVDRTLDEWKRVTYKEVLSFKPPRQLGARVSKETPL
# [6] = biological target: Mast/stem cell growth factor receptor Kit (Homo sapiens, UniProt P10721); test: (§1) Selectivity interaction (Ambit KINOMEscan and KiNATiv profiling in Jurkat cells) EUB0000090b KIT; type: cell-based; details: at 1 µM
# [7] = system: Mast/stem cell growth factor receptor Kit (Homo sapiens), P10721 [V559D]; test: as §1; type: cell-based; details: at 1 µM
# [8] = system: Mast/stem cell growth factor receptor Kit (Homo sapiens), P10721 [V559D,V654A]; test: as §1; type: cell-based; details: at 1 µM
# [9] = system: Mast/stem cell growth factor receptor Kit (Homo sapiens), P10721 [V559D,T670I]; test: as §1; type: cell-based; details: at 1 µM
# [10] = system: Mast/stem cell growth factor receptor Kit (Homo sapiens), P10721 [D816H]; test: as §1; type: cell-based; details: at 1 µM
# [11] = system: Mast/stem cell growth factor receptor Kit (Homo sapiens), P10721 [D816V]; test: as §1; type: cell-based; details: at 1 µM
# [12] = system: Mast/stem cell growth factor receptor Kit (Homo sapiens), P10721 [L576P]; test: as §1; type: cell-based; details: at 1 µM
# [13] = system: Mast/stem cell growth factor receptor Kit (Homo sapiens), P10721 [A829P]; test: as §1; type: cell-based; details: at 1 µM
# Mast/stem cell growth factor receptor Kit (Homo sapiens), P10721 [A829P], sequence (P10721 whole entry A829P): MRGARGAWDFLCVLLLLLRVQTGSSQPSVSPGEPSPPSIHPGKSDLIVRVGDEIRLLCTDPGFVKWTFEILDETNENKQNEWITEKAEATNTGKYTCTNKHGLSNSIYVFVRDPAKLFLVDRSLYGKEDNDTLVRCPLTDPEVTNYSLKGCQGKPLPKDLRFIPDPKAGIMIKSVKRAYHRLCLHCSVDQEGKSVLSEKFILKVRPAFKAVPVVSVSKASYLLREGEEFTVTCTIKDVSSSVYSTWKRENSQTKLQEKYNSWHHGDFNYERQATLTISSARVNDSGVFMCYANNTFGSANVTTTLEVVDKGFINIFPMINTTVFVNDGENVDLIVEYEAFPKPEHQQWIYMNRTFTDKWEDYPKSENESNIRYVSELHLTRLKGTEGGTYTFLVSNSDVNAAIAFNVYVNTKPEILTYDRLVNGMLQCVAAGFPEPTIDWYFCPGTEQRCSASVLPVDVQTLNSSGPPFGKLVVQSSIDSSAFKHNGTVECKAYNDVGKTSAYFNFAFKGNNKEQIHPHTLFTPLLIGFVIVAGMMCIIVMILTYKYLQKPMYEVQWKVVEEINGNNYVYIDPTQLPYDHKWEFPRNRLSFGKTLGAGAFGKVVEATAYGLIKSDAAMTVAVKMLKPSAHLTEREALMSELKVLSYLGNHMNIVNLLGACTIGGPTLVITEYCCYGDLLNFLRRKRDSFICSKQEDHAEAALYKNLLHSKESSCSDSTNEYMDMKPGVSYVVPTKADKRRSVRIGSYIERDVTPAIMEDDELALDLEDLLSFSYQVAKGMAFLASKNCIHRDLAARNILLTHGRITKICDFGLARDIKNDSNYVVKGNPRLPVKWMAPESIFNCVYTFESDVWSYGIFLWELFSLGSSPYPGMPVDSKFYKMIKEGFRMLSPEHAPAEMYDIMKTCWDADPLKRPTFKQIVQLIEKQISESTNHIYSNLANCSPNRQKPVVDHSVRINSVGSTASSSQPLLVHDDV
# Tyrosine-protein kinase Fyn (Homo sapiens), sequence (P06241 2-537 limits assumed): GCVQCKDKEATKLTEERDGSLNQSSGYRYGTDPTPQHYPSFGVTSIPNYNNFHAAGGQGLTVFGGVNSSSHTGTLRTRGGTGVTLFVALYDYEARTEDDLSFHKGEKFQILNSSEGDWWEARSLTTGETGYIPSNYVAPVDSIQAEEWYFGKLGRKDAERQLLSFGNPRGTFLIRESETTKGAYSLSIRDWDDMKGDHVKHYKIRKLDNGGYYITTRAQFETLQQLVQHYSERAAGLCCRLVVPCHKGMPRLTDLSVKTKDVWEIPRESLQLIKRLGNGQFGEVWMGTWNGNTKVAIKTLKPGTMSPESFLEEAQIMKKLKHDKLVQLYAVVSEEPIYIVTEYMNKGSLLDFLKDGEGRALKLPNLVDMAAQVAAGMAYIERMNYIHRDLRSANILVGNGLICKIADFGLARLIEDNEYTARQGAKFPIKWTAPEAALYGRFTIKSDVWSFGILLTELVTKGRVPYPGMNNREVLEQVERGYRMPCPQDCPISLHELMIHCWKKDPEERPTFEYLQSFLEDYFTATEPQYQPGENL
# Mast/stem cell growth factor receptor Kit (Homo sapiens), P10721 [V559D,T670I], sequence (P10721 whole entry V559D/T670I): as the sequence (P10721 whole entry A829P) above, with V559D, T670I, P829A counted along it
# Adenosine receptor A3, sequence (P0DMS8 whole entry): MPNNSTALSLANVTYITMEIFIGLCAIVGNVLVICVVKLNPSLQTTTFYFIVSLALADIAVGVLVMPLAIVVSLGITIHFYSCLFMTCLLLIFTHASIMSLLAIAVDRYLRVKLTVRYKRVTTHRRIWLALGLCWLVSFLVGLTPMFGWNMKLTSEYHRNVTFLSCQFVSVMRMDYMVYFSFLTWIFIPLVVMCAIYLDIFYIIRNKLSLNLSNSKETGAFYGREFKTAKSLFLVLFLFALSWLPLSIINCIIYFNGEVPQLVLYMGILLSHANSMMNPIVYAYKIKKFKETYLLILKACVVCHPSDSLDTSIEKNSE
# Mast/stem cell growth factor receptor Kit (Homo sapiens), P10721 [D816V], sequence (P10721 whole entry D816V): as the sequence (P10721 whole entry A829P) above, with D816V, P829A counted along it
# Mast/stem cell growth factor receptor Kit (Homo sapiens), P10721 [D816H], sequence (P10721 whole entry D816H): as the sequence (P10721 whole entry A829P) above, with D816H, P829A counted along it
# Mast/stem cell growth factor receptor Kit (Homo sapiens), P10721 [V559D], sequence (P10721 whole entry V559D): as the sequence (P10721 whole entry A829P) above, with V559D, P829A counted along it
# Mast/stem cell growth factor receptor Kit (Homo sapiens), P10721 [L576P], sequence (P10721 whole entry L576P): as the sequence (P10721 whole entry A829P) above, with L576P, P829A counted along it
# Bromodomain adjacent to zinc finger domain protein 1A (Homo sapiens), sequence (Q9NRL2 whole entry, the tested form may be a part): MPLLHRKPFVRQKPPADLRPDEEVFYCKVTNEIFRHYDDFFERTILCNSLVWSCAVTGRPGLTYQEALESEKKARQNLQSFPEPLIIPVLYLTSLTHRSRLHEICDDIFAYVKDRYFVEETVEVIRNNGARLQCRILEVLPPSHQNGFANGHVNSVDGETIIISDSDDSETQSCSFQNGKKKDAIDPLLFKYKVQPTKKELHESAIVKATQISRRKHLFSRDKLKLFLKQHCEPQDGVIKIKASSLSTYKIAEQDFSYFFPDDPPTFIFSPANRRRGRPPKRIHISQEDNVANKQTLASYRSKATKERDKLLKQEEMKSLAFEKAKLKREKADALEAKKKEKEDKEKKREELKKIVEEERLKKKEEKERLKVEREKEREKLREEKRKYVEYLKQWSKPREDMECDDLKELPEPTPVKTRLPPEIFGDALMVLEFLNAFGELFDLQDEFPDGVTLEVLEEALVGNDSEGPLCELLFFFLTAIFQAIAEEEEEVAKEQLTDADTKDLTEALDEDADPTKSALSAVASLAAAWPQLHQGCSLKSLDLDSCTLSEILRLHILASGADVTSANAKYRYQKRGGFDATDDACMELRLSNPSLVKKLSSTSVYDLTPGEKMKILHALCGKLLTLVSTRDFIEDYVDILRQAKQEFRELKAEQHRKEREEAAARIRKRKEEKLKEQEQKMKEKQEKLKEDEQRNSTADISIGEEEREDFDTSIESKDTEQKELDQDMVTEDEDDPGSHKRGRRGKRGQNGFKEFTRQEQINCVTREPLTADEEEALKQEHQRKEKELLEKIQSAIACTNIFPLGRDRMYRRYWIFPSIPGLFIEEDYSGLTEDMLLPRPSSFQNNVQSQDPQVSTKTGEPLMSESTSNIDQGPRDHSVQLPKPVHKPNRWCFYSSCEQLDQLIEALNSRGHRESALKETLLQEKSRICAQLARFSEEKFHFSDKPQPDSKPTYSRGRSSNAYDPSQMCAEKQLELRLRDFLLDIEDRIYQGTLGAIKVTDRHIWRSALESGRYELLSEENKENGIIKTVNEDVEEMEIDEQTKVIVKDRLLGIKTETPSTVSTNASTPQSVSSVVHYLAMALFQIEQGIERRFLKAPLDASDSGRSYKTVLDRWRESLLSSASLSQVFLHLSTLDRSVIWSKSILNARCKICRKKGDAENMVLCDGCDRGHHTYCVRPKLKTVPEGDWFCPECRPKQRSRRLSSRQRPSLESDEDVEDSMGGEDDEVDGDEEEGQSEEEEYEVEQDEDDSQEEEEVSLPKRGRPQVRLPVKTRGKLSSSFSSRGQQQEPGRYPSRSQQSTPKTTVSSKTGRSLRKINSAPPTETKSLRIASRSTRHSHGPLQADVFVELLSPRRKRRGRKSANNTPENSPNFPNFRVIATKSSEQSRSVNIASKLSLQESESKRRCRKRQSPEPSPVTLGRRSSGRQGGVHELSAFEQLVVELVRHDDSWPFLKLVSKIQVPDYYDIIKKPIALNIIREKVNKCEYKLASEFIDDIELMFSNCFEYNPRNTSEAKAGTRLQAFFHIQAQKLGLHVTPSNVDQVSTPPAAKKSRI
# Mast/stem cell growth factor receptor Kit, sequence (P10721 whole entry): as the sequence (P10721 whole entry A829P) above, with P829A counted along it
# Mast/stem cell growth factor receptor Kit (Homo sapiens), P10721 [V559D,V654A], sequence (P10721 whole entry V559D/V654A): as the sequence (P10721 whole entry A829P) above, with V559D, V654A, P829A counted along it
smiles,measurement,setting,value
C=CC(=O)Nc1ccc(C(=O)Nc2[nH]nc3c2CN(C(=O)N[C@H](CN(C)C)c2ccccc2)C3(C)C)cc1,% of engagement,[1],6.2%
CN(C)CCCOc1ccc(-c2cc(NCCCn3cccn3)nc(S(C)(=O)=O)n2)cc1,dTM,[2],< 2 K
COc1cc(N(C)c2ccnc3ccc(C(F)(F)F)cc23)cc(OC)c1OC,% binding,[3],53%
Cc1cc([C@@H](C)Nc2ccccc2C(=O)O)c2nc(N3CCOCC3)cc(=O)n2c1 [AZD-6482],% of control,[4],96%
CCC(=O)N1CC[C@H](Nc2ncnc3c2CN(c2cnc(OC)c(C(F)(F)F)c2)CC3)C1 [LENIOLISIB],IC50,Adenosine receptor A3,> 30 µM
CC[C@@H]1[C@H](F)C(=O)N[C@@H]1COc1nccc2cc(C(N)=O)c(OC)cc12 [ZIMLOVISERTIB],% of inhibition,[5],7.12%
CN(C)C/C=C/C(=O)Nc1ccc(C(=O)N2CCCC(Nc3ncc(Cl)c(-c4c[nH]c5ccccc45)n3)C2)cc1 (centres undefined),% of control,[6],93%
same,% of control,[7],82%
same,% of control,[8],74%
same,% of control,[9],95%
same,% of control,[10],76%
same,% of control,[11],92%
same,% of control,[12],82%
same,% of control,[13],75%
